In the test the target is T1, lymphokine-activated killer T-cell-originated protein kinase (TOPK) (Homo sapiens, UniProt Q96KB5).
T1 sequence (Q96KB5 1-322): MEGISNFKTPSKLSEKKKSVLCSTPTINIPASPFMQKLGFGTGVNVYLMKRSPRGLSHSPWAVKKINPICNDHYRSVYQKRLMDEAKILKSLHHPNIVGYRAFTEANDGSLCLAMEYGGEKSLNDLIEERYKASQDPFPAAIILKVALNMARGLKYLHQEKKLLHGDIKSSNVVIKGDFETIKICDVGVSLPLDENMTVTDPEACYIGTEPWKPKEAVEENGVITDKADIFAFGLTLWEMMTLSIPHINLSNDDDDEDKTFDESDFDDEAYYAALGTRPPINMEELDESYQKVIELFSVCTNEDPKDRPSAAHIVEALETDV
The test is described as follows: in vitro TOPK kinase assay. It is filed as biochemical.

This passage reports EC50 results from article PMC7080599 (European journal of nuclear medicine and molecular imaging, 2019).

As usually defined, the EC50 is the concentration at which the effect is half-maximal. Higher therefore signals weaker potency.

`Cc1cc(O)c(-c2ccc([C@@H](C)CNc3ccc([N+](=O)[O-])c4nonc34)cc2)c2c1[nH]c(=O)c1sccc12` [TOPKi-NBD, (R)-8-hydroxy-6-methyl-9-(4-(1-((7-nitrobenzo[c][1,2,5]oxadiazol-4-yl)amino)propan-2-yl)phenyl)thieno[2,3-c]quinolin-4(5H)-one] had an EC50 of 490 ± 170 nM.
